Experimental findings from publication PMC11311870, “Catalytic Mode and Product Specificity of an α-Agarase Reveal Its Direct Catalysis for the Production of Agarooligosaccharides” (Foods, 2024) are described below.

SMILES strings stand for the structures.

The target of the assay is T1, Cm-AGA (Catenovulum maritimum, UniProt A0A0J8H064).
T1 construct: gene XM47_01860
T1 sequence (A0A0J8H064 27-1466): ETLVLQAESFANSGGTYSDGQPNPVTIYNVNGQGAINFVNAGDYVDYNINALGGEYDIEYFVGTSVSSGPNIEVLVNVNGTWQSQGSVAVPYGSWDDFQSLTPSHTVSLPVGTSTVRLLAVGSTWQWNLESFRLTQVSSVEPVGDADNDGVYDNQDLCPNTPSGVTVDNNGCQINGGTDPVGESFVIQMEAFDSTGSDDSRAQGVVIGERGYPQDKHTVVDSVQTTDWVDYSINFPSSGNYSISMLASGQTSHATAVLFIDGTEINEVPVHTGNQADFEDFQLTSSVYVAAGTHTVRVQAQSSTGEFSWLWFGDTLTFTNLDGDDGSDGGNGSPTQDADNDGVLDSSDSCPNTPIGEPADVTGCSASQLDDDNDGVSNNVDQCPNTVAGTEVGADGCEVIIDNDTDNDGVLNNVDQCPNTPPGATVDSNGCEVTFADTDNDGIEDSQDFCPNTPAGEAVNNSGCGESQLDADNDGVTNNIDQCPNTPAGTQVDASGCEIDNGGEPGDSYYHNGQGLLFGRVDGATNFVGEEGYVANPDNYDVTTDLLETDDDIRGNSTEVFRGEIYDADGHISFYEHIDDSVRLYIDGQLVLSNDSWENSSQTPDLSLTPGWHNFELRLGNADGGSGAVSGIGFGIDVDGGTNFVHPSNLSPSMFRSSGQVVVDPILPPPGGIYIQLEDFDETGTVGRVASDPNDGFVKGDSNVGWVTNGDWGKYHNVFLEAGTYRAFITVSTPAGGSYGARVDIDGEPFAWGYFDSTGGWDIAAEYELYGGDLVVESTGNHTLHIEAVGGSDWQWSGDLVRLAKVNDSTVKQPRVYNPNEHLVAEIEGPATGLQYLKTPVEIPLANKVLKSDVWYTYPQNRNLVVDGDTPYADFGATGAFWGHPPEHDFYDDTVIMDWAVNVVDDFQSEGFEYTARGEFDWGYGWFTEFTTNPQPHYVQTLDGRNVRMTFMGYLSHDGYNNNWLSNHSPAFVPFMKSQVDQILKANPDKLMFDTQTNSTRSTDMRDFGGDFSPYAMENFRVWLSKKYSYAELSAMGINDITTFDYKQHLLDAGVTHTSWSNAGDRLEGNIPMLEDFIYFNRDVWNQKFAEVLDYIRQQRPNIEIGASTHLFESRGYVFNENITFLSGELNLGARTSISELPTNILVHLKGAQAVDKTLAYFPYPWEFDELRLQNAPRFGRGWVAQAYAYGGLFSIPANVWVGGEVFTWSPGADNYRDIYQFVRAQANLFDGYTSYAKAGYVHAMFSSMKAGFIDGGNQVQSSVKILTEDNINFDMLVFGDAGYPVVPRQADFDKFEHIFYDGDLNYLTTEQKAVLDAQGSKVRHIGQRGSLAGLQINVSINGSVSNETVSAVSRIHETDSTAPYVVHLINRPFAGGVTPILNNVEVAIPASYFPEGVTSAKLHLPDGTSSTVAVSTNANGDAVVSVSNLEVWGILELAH
Description: HPAEC-PAD product analysis. The assay is classed as biochemical. Particulars: pH not stated for this reaction (in water); 35 °C, 24 h; 5 mg/mL stock.

For the molecule `OC[C@H]1O[C@@H](O[C@H]2[C@H]3OC[C@@H]2O[C@@H](O[C@H]2[C@@H](O)[C@@H](CO)O[C@@H](O[C@H]4[C@H]5OC[C@@H]4O[C@@H](O[C@H]4[C@@H](O)[C@@H](CO)OC(O)[C@@H]4O)[C@H]5O)[C@@H]2O)[C@H]3O)[C@H](O)[C@@H](O[C@@H]2O[C@H]3CO[C@@H]([C@@H]2O)[C@@H]3O)[C@H]1O` (stereo partly shown) [NA6, neoagarohexaose], the HPAEC-PAD product analysis entry is “the products of Cm-AGA-mediated NA6 hydrolysis were relatively complex (Figure 8D)”.
